ChEMBL document CHEMBL3232912, “Anti-inflammatory diterpenoids from the roots of Euphorbia ebracteolata” (J Nat Prod, 2014)

Experiments:
RAW264.7 [1] = assay: Cytotoxicity against mouse RAW264.7 cells at IC50 by MTT assay; type: cell-based
RAW264.7 [2] = assay: Antiinflammatory activity in mouse RAW264.7 cells assessed as inhibition of LPS-induced nitric oxide production after 24 hrs by Griess method; type: functional, cell-based; details: RAW264.7, 24 h

SMILES	IC50 (RAW264.7 [2]) [µM]	Activity (RAW264.7 [1])
C=C[C@]1(C)CC[C@@]2(CO)C3=CC[C@H](O)C(C)(C)[C@@H]3CC[C@@H]2C1	5.57	Non-toxic
C=C[C@]1(C)CC[C@@]2(C)c3cc(O)c(O)c(C)c3CC[C@@H]2C1	3.33	Non-toxic
COc1ccc2c(c1)c(CC(=O)O)c(C)n2C(=O)c1ccc(Cl)cc1 [INDOMETHACIN]	16.7	
C=C[C@]1(C)CC[C@]2(C)[C@H](CC[C@H]3[C@@](C)(CO)C(=O)C=C[C@@]32O)C1	7.32	Non-toxic
C=C[C@]1(C)CC[C@@]2(C)C3=CC(=O)[C@@H]4C[C@]4(C)[C@]3(O)CC[C@@H]2C1	2.76	Non-toxic
C=C[C@]1(C)CC[C@@]2(C)c3cc(O)c(O)c(C)c3C[C@H](O)[C@@H]2C1	2.44	Non-toxic
C=C[C@]1(C)CC[C@@]2(C)C3=CC(=O)O[C@@H]3C(C)(C)C[C@H](O)[C@@H]2C1	6.49	Non-toxic

More lines, main results first:

IC50 (RAW264.7 [2]) [µM]	SMILES	Activity (RAW264.7 [1])
1.02	C=C[C@]1(C)CC[C@@]2(C)C3=CC(=O)[C@H](O)[C@](C)(CO)[C@@H]3CC[C@@H]2C1	Non-toxic
12.5	C=C[C@]1(C)CC[C@@]2(C)C3=C[C@H](O)[C@H](O)C(C)(C)[C@@H]3CC[C@@H]2C1	Non-toxic
19	C=C[C@]1(C)CC[C@]2(C)[C@H](CC[C@H]3[C@@](C)(CO)C(=O)C=C[C@]32O)C1	Non-toxic
7.29	C=C[C@]1(C)CC[C@@]2(C)C3=CC[C@H](O)[C@](C)(CO)[C@@H]3CC[C@@H]2C1	Non-toxic
5.51	C=C[C@]1(C)CC[C@@]2(C)C3=CC[C@H](O)C(C)(C)[C@@H]3C[C@H](O)[C@@H]2C1	Non-toxic
24.3	C=C[C@]1(C)CC[C@@]2(C)C3=C[C@@H](O)[C@H](O)C(C)(C)[C@@H]3CC[C@@H]2C1	Non-toxic
7.5	C=C[C@]1(C)CC[C@@]2(CO)C3=CC(=O)O[C@@H]3C(C)(C)CC[C@@H]2C1	Non-toxic
